For series [1] the following is noted: cited from earlier work.
The subject of series [2] is ovarian cancer. To be noted: mouse models of ovarian cancer; cited from earlier work.
The conditions of series [3]: human, in vivo; cited from earlier work.
Series [4] relates to PDE III. To be noted: cited from earlier work; for IC50 inhibition of PDE III / IC50: in vitro; for IC50: read-out: IC50 inhibition of PDE III.
The conditions of series [5]: cited from earlier work; for peak plasma levels: after a typical 1 mg clinical dose.
Series [6] deals with PF4. The note with it: ET patients; HU 1.25 g/day, IFN-α 1.5×10^6 units/day, anagrelide 1.5 mg/day; cited from earlier work.
The subject of series [7] is VEGF. To be noted: ET patients; HU 1.25 g/day, IFN-α 1.5×10^6 units/day, anagrelide 1.5 mg/day; cited from earlier work.
The subject of series [8] is megakaryocytes (MKs) from human umbilical cord blood-derived CD34+ haematopoietic cells. The series can be described thus: Co-culture of COV362 cells and developing megakaryocytes (MK expansion, CD61 flow cytometry). It is filed as cell-based. The note with it: anagrelide 1 μM. The method, then:
Cells and drug treatment—Megakaryocytes (MKs) were generated ex-vivo essentially as previously described (Ahluwalia M et al 2010). In brief, to promote terminal megakaryocytic differentiation pre-expanded human umbilical cord blood-derived CD34^+ haematopoietic cells were cultured for 7 days in Stemspan™ SFEM II medium (Stem Cell Technologies) supplemented with 1% human umbilical cord blood plasma and 40 ng/ml thrombopoietin (TPO) unless otherwise indicated (MK medium). […]
The human ovarian cancer cell line COV362 was grown in Iscove's modified Dulbecco's medium (IMDM) supplemented with 2 mM glutamine and 10% foetal bovine serum (FBS). Cell cultures were maintained at 37° C. in a humidified incubator under 5% CO2/95% air.
Co-culture experiments—Co-culture of COV362 cells (COVs) and developing MKs was carried out in a modified Boyden Chamber (BD Falcon, BD Biosciences, Oxford, UK) consisting of a cup-shaped cell culture insert resting inside the well of a 24-well companion plate, with the bottom of the insert made of a permeable microporous polyethylene terephthalate (PET) membrane having a pore size of 0.4 μm.
In experiments examining the effects of COVs on MK development, COVs were seeded in the companion plate at various cells densities and grown for 4 days prior to mounting the inserts. Then, the medium in the companion plate was removed and replaced with fresh MK medium. Immediately thereafter the pre-expanded haematopoietic cells were seeded in the insert. After seven days of co-culture the cells growing in the inserts were harvested for analysis of MK development.
Analysis of megakaryocyte development—Cell density was determined using a Casy TT Cell counter (Innovatis, Germany) set with a lower cut-off limit of ˜7.5 μm. MK-specific antigen expression was monitored by flow cytometry using a fluorescein isothiocyanate-conjugated anti-CD61 antibody (clone Y2/51, Dako, Ely, UK) as previously described (Wang G et al 2005). The number of MKs was calculated by multiplying the total number of cells in the culture by the fraction of CD61 positive cells.
Background: In flow cytometry, cells or beads pass a laser one at a time.

Series [9] deals with COV362 cells. The series can be described thus: Transmigration assay of COV362 cells towards MK cultures (modified Boyden chamber). It is filed as cell-based, human. The method, then: Transmigration assay—Transmigration of human ovarian cancer cells, COV362 cells (COVs), was examined in a well established model of cancer cell migration (Hart et al 2005) and Kramer et al 2013) which employed the modified Boyden chamber described above but using inserts with a larger 8μm pore PET membrane. […] In this case pre-expanded haematopoietic cells were grown for 7 days in MK medium in the wells of the companion plate prior to placement of the inserts. Inserts were then positioned inside these MK-containing wells or in parallel wells filled with and equivalent volume of MK medium alone. A suspension of 0.35 mL COVs cells made in plasma-free MK medium at a density of 2.86×10^5cells/ml was then loaded onto the inserts and allowed to trans-migrate through the PET membrane for up to 24 h at 37° C. in a tissue culture incubator. At various time points the transmigration assay was terminated by removing the insert from the well of the companion plate and aspirating its contents. After washing the inserts with phosphate-buffered saline (PBS) non-migrating cells attached to the upper side of the PET membrane were scraped off with cotton swabs soaked in PBS. […] Bright field digital photomicrographs were taken in five random fields at 100× magnification and the average number of cells per field was determined by manual counting.

Series [10] is described as follows: Aqueous solubility of anagrelide. It is filed as physicochemical.
In series [11] the test system is megakaryocytes. To be noted: cited from earlier work.
The conditions of series [12]: cited from earlier work. The source holds these as a separate data set.
The conditions of series [13]: cited from earlier work. This is another data set of the same source.
Series [14] has as its system various cancer cell lines. To be noted: in vitro; WO2014/183673; read-out: IC50 apoptosis in cancer cell lines; cited from earlier work.
For series [15] the following is noted: up to concentration of 1 μM; cited from earlier work.
The conditions of series [16]: cited from earlier work. The source holds these as a separate data set.
For series [17], the system named is cancer cells. The note with it: mice; cited from earlier work.

Values after ≈ are worked out from the molar mass of the structure shown. Values joined by “and” are separate entries in the source; they are usually repeats but may differ in a detail not shown here. Identical values can stand only once. Like-named read-outs stand apart in the source and are kept apart here. Where only a bound is given, the exact number is not on record here.

Consider `Cc1ncc2n1-c1ccc(Cl)cc1C(c1ccccc1F)=NC2` [midazolam], for which the results for the bioavailablity in [1] (given orally) and in [1] (intranasal spray) were approximately 30% and 87%, respectively.

For the compound siltuximab: IL-6 antibody, in [2], the platelet count entry is reported as “significantly reduced” and the tumour growth entry is given as “significantly reduced”. Also, in [3], the “upper respiratory infections, share of patients” value is given as more than 20%.

For orientation: IC50 means the point on the concentration scale where inhibition reaches its midpoint. Take `O=C1NC2=Nc3ccc(Cl)c(Cl)c3CN2C1O` (stereo not drawn) [3-hydroxy anagrelide]: in series [4] (Wang et al, 2005), the “PDEIII inhibitory potency relative to anagrelide” value is listed as approximately 40 fold. For the same compound, in series [4], the “cardiostimulant potency relative to the parent drug” value is listed as 40 fold, the “IC50 inhibition of PDE III” value is reported as 0.2 ng/mL and the IC50 is 0.7 nM. In addition, in [5] (listed as metabolite), the peak plasma levels is 29 nM and ~8 ng/mL. In addition, in [5] (clinical practice, Martinez-Selles et al, 2013), the “plasma concentrations of metabolite relative to parent drug” value is 2-3 fold.

With `NC(=O)NO` [HU, hydroxyurea], the “PF4 levels after treatment” value in [6] was “Neither HU nor IFα brought PF4 and VEGF down”. The “VEGF levels after treatment” value in series [7] was “Neither HU nor IFα brought PF4 and VEGF down”.

As usually defined, the inhibition is the relative decrease from the control value, in per cent. A word on the aqueous solubility: it is the dissolved amount per volume that the medium holds. With `O=C1CN2Cc3c(ccc(Cl)c3Cl)N=C2N1` [anagrelide], the inhibition at 1 µM in [8] (Homo sapiens, 168 h, absence of COVs, 7 days, read-out: inhibition of thrombopoietin driven MK expansion) is approximately 50%. Moreover, the “stimulatory effects of COVs on MK expansion” value in series [8] (COVs seeded at 1000cells/mL) is given as “completely abolished”. Moreover, in series [8] (COVs seeded at 3000cells/mL), the “expected increase in MK expansion with COVs” value is on record as “more than halved”. For the same compound, the “attractant properties for COVs of MK cultures grown with drug” value in [9] (anagrelide 1 μM, overnight incubation (FIG. 3)) was “no attractant properties”. For the same compound, the “attractant properties for COVs of MKs grown with drug” value in series [9] (clinically relevant concentrations, 16 h (FIG. 4)) is given as “loss of attractant properties”. Moreover, the “FDA Biopharmaceutics Classification System class” value in series [10] is “low solubility/high permeability”. Further, the “IC50 inhibition of PDE III” value in series [4] was 8.2 ng/mL. The IC50 was 32 nM in [4], 26 nM in series [11] (read-out: in vitro anti-megakaryocytic IC50) and 100 nM in [14]. Besides, in series [11], the “in vitro anti-megakaryocytic IC50” value is recorded as 7 ng/mL. Moreover, the peak plasma levels in [5] was 16 nM and ~4 ng/mL. The oral bioavailability result in [12] is on record as “less than 50%”. The aqueous solubility in series [13] (between pH 4-8) was approximately 1.0 µg/mL (≈ 3.9 µM); in series [13] (pH1), 236 µg/mL (≈ 922 µM). Also, the water solubility in series [13] (pH7) is approximately 1.0 µg/mL (≈ 3.9 µM); in series [13] (pH of ~3), 250 µg/mL (≈ 976 µM). In addition, in series [15], the apoptopic effects entry was “no apoptopic effects”. Besides, the “patients discontinuing drug treatment due to cardiovascular side-effects” value in [16] (Birgegard et al, 2004) was approximately 25%. Also, the “patients with idiopathic cardiomyopathy” value in [16] (of 434 patients with essential thrombocythaemia and polycythemia vera, Jurgens et al 2004) is reported as 11. Further, the “PF4 levels after treatment” value in series [6] was “reduced the PF4 and VEGF levels to normal”. Further, in [7], the “VEGF levels after treatment” value is “reduced the PF4 and VEGF levels to normal”. The “circulation time of cancer cells” value in series [17] is recorded as “increase in circulation time of cancer cells”.
